Measured values taken from patent US6242449A, “3-benzoylindole derivatives and drugs containing the same” (Zeria Pharmaceutical Co., Ltd., priority 1997, dated 2001).
Where a name gives a salt, the structure may show the parent alone.

Columns and labels:
α1 -adrenergic receptor [1] = target: T1, α1 -adrenergic receptor (Oryctolagus cuniculus, UniProt O02824); experiment: α1-Adrenergic receptor blocking action, rabbit urethra smooth muscle strips (phenylephrine contraction); type: cell-based
T1 construct: Transverse smooth muscle strips were prepared; from tissue; host or cells: rabbit prostate, transverse smooth muscle strips
T1 sequence (O02824 1-466): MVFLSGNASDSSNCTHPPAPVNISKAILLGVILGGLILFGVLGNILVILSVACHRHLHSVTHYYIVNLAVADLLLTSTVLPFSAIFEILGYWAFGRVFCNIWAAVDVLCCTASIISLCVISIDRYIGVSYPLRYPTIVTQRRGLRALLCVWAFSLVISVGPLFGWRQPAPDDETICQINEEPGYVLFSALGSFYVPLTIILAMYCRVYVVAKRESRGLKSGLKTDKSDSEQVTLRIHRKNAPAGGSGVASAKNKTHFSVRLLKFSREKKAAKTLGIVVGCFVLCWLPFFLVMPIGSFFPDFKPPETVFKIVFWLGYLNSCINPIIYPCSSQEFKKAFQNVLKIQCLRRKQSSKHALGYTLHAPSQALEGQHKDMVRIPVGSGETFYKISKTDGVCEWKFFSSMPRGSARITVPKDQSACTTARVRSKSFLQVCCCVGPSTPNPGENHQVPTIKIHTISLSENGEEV
Experimental: (§1) Rabbits were sacrificed by exsanguination, and in each rabbit the urethra and prostate were isolated from the lower urinary tract system. Transverse smooth muscle strips were prepared. Each strip was suspended in a 37° C. Krebs-solution-containing organ bath which had been bubbled with 95% O2 and 5% CO2. Isometric contraction under a resting tension of 1 g was recorded with an isometric transducer (TB-651T, Nihon Koden) on a thermal pen-type recorder (RECTI HORIZ 8K, Nihon Denki San'ei).
(§2) The strip was allowed to stand for equilibration for 60 minutes, and contractions were elicited by a certain concentration of phenylephrine (10^-5 M). The organ bath was washed with a nutrient liquid. Thereafter, the above procedure was repeated at 60-minute intervals until constant contraction responses were obtained. Subsequently, dose-response curves were obtained by administration of phenylephrine in an accumulative manner (10^-7 to 3×10^-4 M). After the strips were washed and then rested for 60 minutes, the strips were treated with a test drug solution (i.e., DMSO solution containing the test drug; 10^-7 to 10^-5 M) for 30 minutes, to thereby obtain dose-response curves for phenylephrine.
(§3) The composition of the nutrient solution was as follows.
(§4) In all cases, 10^-5 M propranolol (β-adrenaline antagonist) was administered 10 minutes before administration of the drug.
(§5) The efficacy of each test drug in terms of α1 -adrenergic receptor blocking action was assessed from calculation of pA2 (inverse of logarithm of the mole concentration of antagonist which requires, in the presence of an antagonist, twice the concentration of an agonist that provides an effect equal to that obtained in the absence of an antagonist).

α1 -adrenergic receptor [2] = target: T1, α1 -adrenergic receptor; experiment: α1-Adrenergic receptor blocking action, rabbit prostate smooth muscle strips (phenylephrine contraction); type: cell-based
Experimental: as §1, §2, §3, §4, §5

[3] = target: Testosterone 5α-reductase; experiment: Testosterone 5α-reductase inhibitory action, nuclear fraction of rat prostates; type: biochemical, Wistar rat; settings: rat prostate nuclear fraction, [4-^14 C]-testosterone, NADPH, pH 7.0, 60 minutes at 37° C.
Experimental: Male Wistar rats (age: 9-10 weeks old) were anesthetized with ether. The abdomen of each rat was median-cut to thereby remove the prostate. The isolated prostates were weighed and homogenized in 3 tissue volumes of 50 mM Tris-HCl buffer (pH 7.2) containing 0.25 M sucrose. The homogenates were filtered with gauze and centrifuged at 3,000 rpm for 10 minutes. The pellets were resuspended in a buffer as described above and the resultant suspension was used as a nuclear fraction.
The nuclear fraction of the prostates (0.1 ml), 5 mM NADPH (0.1 ml), and a test drug solution (DMSO solution containing the test drug; 0.01 ml) were added to 50 mM Tris-HCl buffer (pH 7.0; 0.78 ml). Reaction was initiated by addition of 150 μM [4-^14 C]-testosterone (0.01 ml) to the resultant solution, and the reaction mixture was incubated for 60 minutes at 37° C. After incubation, reaction was stopped by addition of ethyl acetate (4 ml), and simultaneously, the reaction mixture was subjected to extraction. The extract (3 ml) was brought to dryness through evaporation with nitrogen gas. Ethyl acetate (40 μl) was added thereto, and a 10 μl portion was applied to a silica gel thin layer plate for development with a solvent mixture of ethyl acetate and cyclohexane (1:1). After development, the plate was subjected to autoradiography, and spots attributed to testosterone, dihydrotestosterone, and other metabolites were collected by scraping. Radioactivity of the spots was counted in a liquid scintillation counter. From the total radioactivity and the radioactivity of 5α-metabolites, reaction ratio was obtained. IC50 of the compound, which represents the inhibitory activity of the test compound, was calculated from the reaction ratio of the control solvent and the reaction ratio obtained when the compound was added.

[4] = rabbit urethra strips, phenylephrine 10^-7 to 3×10^-4 M, test drug 30 minutes, 10^-5 M propranolol present, read-out: Urethra (pA2) (converted)
[5] = rabbit prostate strips, phenylephrine 10^-7 to 3×10^-4 M, test drug 30 minutes, 10^-5 M propranolol present, read-out: Prostate (pA2) (converted)

Compound | Kb (α1 -adrenergic receptor [1]) | Kb (α1 -adrenergic receptor [2]) | IC50 [3] | Kb (α1 -adrenergic receptor [1]; [4]) | Kb (α1 -adrenergic receptor [2]; [5])
CCc1ccc(CNc2ccc(C(=O)c3cn(CCCC(=O)O)c4ccccc34)cc2OCCCN2CCN(c3ccccc3OC)CC2)cc1 [Example 1, 4-{3-{4-(4-Ethylphenyl)methylamino-3-{3-[4-(2-methoxyphenyl)piperazin-1-yl]propoxy}benzoyl}indol-1-yl}butanoic acid hydrochloride] | 302 nM | 224 nM | 0.7 nM | – | –
COc1ccccc1N1CCN(CCCOc2cc(C(=O)c3cn(CCCC(=O)O)c4ccccc34)ccc2NCc2ccccc2)CC1 [Example 5] | – | – | – | 174 nM | 53.7 nM
COc1ccccc1N1CCN(CCCOc2cc(C(=O)c3cn(CCCC(=O)O)c4ccccc34)ccc2NCc2ccc(C)cc2)CC1 [Example 7] | – | – | 0.86 nM | 316 nM | 95.5 nM
CCOc1ccccc1N1CCN(CCCOc2cc(C(=O)c3cn(CCCC(=O)O)c4ccccc34)ccc2NCc2ccc(C)cc2)CC1 [Example 8, 4-{3-{4-[(4-Methylphenyl)methylamino]-3-{3-[4-(2-ethoxyphenyl)piperazin-1-yl]propoxy}benzoyl}indol-1-yl}butanoic acid] | – | – | 1 nM | – | –
CCOc1ccccc1N1CCN(CCCOc2cc(C(=O)c3cn(CCCC(=O)O)c4ccccc34)ccc2NCc2ccc(CC)cc2)CC1 [Example 10, 4-{3-{3-{3-[4-(2-Ethoxyphenyl)piperazin-1-yl]propoxy}-4-[(4-ethylphenyl)methylamino]benzoyl}indol-1-yl}butanoic acid] | – | – | 0.47 nM | – | –
